Laboratory results as given in patent US20220054540A1, “Ferric Carboxymaltose In The Treatment Of Heart Failure And In The Treatment Of Congestion In Heart Failure” (Vifor (International) AG, priority 2018, published 2022).

How the values were obtained:
[1] = cited from earlier work
[2] = system: ambulatory patients with NYHA class II or III CHF and iron deficiency; test: FAIR-HF plasma volume status (PVS) substudy: post-hoc analysis of calculated PVS and clinical congestion, IV FCM vs placebo; type: in vivo, human (patients); conditions: for change from baseline in Hct / change from baseline in PVS / change from baseline in weight: mean±SD; for change from baseline in Hct: significant increase compared to placebo
Protocol: FAIR-HF is a multi-centre, randomized, double-blind trial including 459 ambulatory patients with NYHA class II or III CHF, a left ventricular ejection fraction (LVEF) ≤40% (NYHA II) or ≤45% (NYHA III), iron deficiency (ID) as defined by a ferritin <100 ug/l or 100 to 299 ug/l with a transferrin saturation (TSAT)<20%, and a hemoglobin (Hb) level between 9.5 and 13.5 g/dl. Patients were randomized in a 2:1 ratio to intravenous (IV) iron as ferric carboxymaltose (FCM; Ferinject®) or IV placebo (saline) weekly until iron repletion (correction phase), then 4 weekly until week 24 (maintenance phase). FCM was administered in doses of 200 mg (4 mL) weekly up to iron repletion (correction phase of variable duration depending on individual iron deficit). The calculated dose was rounded to the next 100 mg iron, i.e. the final dose may be 100 mg iron depending on the individual iron deficit. After the correction phase, FCM was administered monthly in doses of 200 mg until the 24th week (maintenance phase).
In the placebo group, during the correction phase, patients will receive the number of normal saline injections (4 mL weekly) corresponding to the calculated total iron dose needed according to the individual iron deficit. During the maintenance phase, placebo patients will receive 4 mL normal saline monthly. Regular assessments were done at weeks 4, 12, and 24.
The hematocrit value (Hct or Ht) and weight at randomization were used for plasma volume status (PVS) calculations and were available in 436 (95%) patients whose data were therefore used in this post-hoc analysis.
Actual plasma volume (PV) was calculated with the following equation that was derived by curve-fitting techniques using subjects' Hct and weight compared with PV values measured with gold standard radioisotope assays:
actual PV=([1−Hct]×[a+(b×weight [kg])])
where Hct is a fraction and a=1530 in males and 864 in females, and b=41 in males and 47.9 in females.
Ideal PV was calculated from the following well established formula:
where c=39 in males and 40 in females
Relative PVS, an index of the degree to which patients have deviated from their ideal PV, was subsequently calculated from the following equation:
PVS=([actual PV−ideal PV]/ideal PV)×100%
Patients were weighed and examined for signs and symptoms of congestion at randomization and at weeks 4, 12 and 24. The presence or absence of peripheral edema, pulmonary congestion (crackles, rales), and an S3 gallop (third heart sound) were recorded, as was the actual jugular venous pressure (JVP).
Data are presented as mean±SD, frequencies (%), or medians (interquartile range [IQR]). Intergroup comparisons were made using a Kruskall-Wallis analysis of variance (ANOVA), analysis of covariance (ANCOVA), Student t-test, Pearson χ2 test, or a Mann Whitney U-test as appropriate. Associations between variables were determined using logistic regression. A P-value <0.10 was used to enter and retain covariates into stepwise multivariable regression models.
To assess the impact of treatment assignment on PVS, comparisons of changes in PVS from baseline at 4, 12, and 24 weeks between the placebo and FCM group were evaluated by comparing the least square means at each visit from a repeated-measures model using an unstructured covariance structure and adjusting for the continuous baseline value and a visit x drug interaction. Changes over time for other variables were similarly determined.

[3] = system: ambulatory patients with NYHA class II or III CHF and iron deficiency; conditions: after 24 weeks of treatment, IV FCM compared to saline; cited from earlier work
[4] = cited from earlier work; remark: listed apart in the source
[5] = publications, e.g. Qunibi et al. 2011; cited from earlier work
[6] = week 4, significant reduction compared to placebo

**Q.** With “polynuclear iron(III)-oxyhydroxide carboxypolymaltose (carboxymaltodextrin) [FCM]” as the substance, how does the dextran cross-reactivity ([1]; in vivo) read?
**A.** The dextran cross-reactivity was “no dextran cross-reactivity”.

**Q.** What about the “tolerability of rapid infusion” value ([1]; up to 1000 mg of elemental iron over 15 min, intravenous) of the same substance?
**A.** Its value is “well tolerated”.

**Q.** What about the peripheral edema ([2]; FCM treatment compared to placebo (FIG. 2d)) of the same substance?
**A.** The peripheral edema was “improvement in peripheral edema”.

**Q.** And the “improvement in pulmonary edema” value ([2]; FCM treatment vs placebo, P=0.35)?
**A.** Its value is “not evident”.

**Q.** And the “improvement in jugular venous distension” value ([2]; FCM treatment vs placebo, P=0.54)?
**A.** The value was “not evident”.

**Q.** And the “improvement in presence of an S3 gallop rhythm” value ([2]; FCM treatment vs placebo, P=1.00)?
**A.** The value was “not evident”.

**Q.** And the “time of maximal treatment effect on PVS” value ([2]; FCM vs placebo)?
**A.** The value was 12 week.

**Q.** And the change from baseline in Hct ([2]; week 4)?
**A.** Its change from baseline in Hct is 2 ± 4%.

**Q.** What about the “change from baseline in PVS” value [2, 6] of the same substance?
**A.** The value was −2.5±5.9%.

**Q.** And the “change from baseline in weight” value [2, 6]?
**A.** The value was -0.2 ± 2.4 kg.

**Q.** And the “change from baseline in weight” value ([2]; week 12, not significant compared to placebo)?
**A.** Its value is 0.2 ± 3.0 kg.

**Q.** What about the change from baseline in Hct ([2]; week 12) of the same substance?
**A.** The change from baseline in Hct was 3 ± 4%.

**Q.** And the “change from baseline in PVS” value ([2]; week 12, significant reduction compared to placebo)?
**A.** Its value is −3.9±6.8%.

**Q.** What about the “change from baseline in weight” value ([2]; week 24, not significant compared to placebo) of the same substance?
**A.** The value was 0.3 ± 3.2 kg.

**Q.** What about the change from baseline in Hct ([2]; week 24) of the same substance?
**A.** The change from baseline in Hct was 3 ± 5%.

**Q.** And the “change from baseline in PVS” value ([2]; week 24, significant reduction compared to placebo)?
**A.** Its value is −4.1±7.4%.

**Q.** And the “6 minute walking distance (6MWD)” value [3]?
**A.** The value was “significant improvements”.

**Q.** And the NYHA class [3]?
**A.** The NYHA class was “significant improvements”.

**Q.** And the “Patient Global Assessment (PGA)” value [3]?
**A.** Its value is “significant improvements”.

**Q.** What about the “stability of the iron-carbohydrate complex” value ([4]; compared with ferric gluconate and iron sucrose) of the same substance?
**A.** The value was “more stable than ferric gluconate or iron sucrose”.

**Q.** What about the “pH of the complex” value ([4]; nearly neutral) of the same substance?
**A.** Its value is 5.0-7.0.

**Q.** And the “peripheral edema as adverse event” value [5]?
**A.** Its value is “one of the most commonly occurring adverse events”.
